The source of these data is patent US20240050406A1, “COMPOSITION COMPRISING OXIRACETAM FOR PREVENTING OR TREATING MUSCULAR DISEASE” (KSB TUGEN INC., priority 2021, published 2024).

Molecules are shown by their SMILES.

The subject of one test is C2C12 myotubes. Kind of test: Myotube diameter in TNF-α muscular atrophy cell model (Experimental Example 7). The format is cell-based, mouse. As to the method: A mouse-derived C2C12 cell line was provided from the American Type Culture Collection (ATCC, CRL-1772; Manassas, VA, USA) and cultured at 37° C. in 5% CO2. In the proliferation phase of the cells before differentiation, high concentration glucose Dulbecco's modified Eagle's medium (DMEM) containing 1% penicillin/streptomycin and 10% fetal bovine serum (FBS) medium were used, and in the differentiation induction, the FBS medium was replaced with a 2% horse serum (HS)-containing medium. The C2C12 myoblasts were seeded into a 96 well culture plate and a 6 well culture plate at 2×10^5/well and 5×10^3/well, respectively, and cultured at 37° C. in a CO2 incubator. When the confluency reached approximately 90%, the medium was replaced with 2% horse serum (HS)-containing DMEM to induce differentiation of myoblasts. After 5 days, the C2C12 myotubes that had differentiated were treated with 10 ng/ml TNF-α, which is an inflammatory factor, for 48 hours to cause myotube atrophy, thereby creating a muscular atrophy cell model, TNF-α-treated group (TNF-α). During the TNF-α treatment, 10 μM oxiracetam was treated to create an oxiracetam-treated group (Oxiracetam 10 μM), cells that were not treated during the same period were prepared as a control. Two days after TNF-α and oxiracetam treatment, each of the TNF-α-treated group (TNF-α), the oxiracetam-treated group (Oxiracetam 10 μM) and the control was treated with an ATP detection reagent at room temperature, and then luminescence was measured using a mitochondrial ToxGlo™ assay kit (Promega). In addition, the TNF-α-treated group (TNF-α), the oxiracetam-treated group (Oxiracetam 10 μM) and the control were photographed using an optical microscope and the diameter of a myotube cell in each group were measured and compared. Statistical processing was performed using GraphPad Prism (GraphPad Software Inc., San Diego, CA, USA).

Test [1] concerns dexamethasone-induced muscular atrophy animal model. Kind of test: Dexamethasone-induced muscular atrophy animal model (Experimental Example 1). The format is in vivo, ICR mice. Particulars: compared to dexamethasone-treated group (excipient). From the text: 1-1. Preparation of experimental animals and samples For an experimental group in the present invention, oxiracetam
having a structure of Formula 1 was purchased from Tokyo Chemical Industry (Japan; Product No. 00398, CAS RN:62613-82-5, purity: 96%) and used. As experimental animals, 7-week-old male ICR mice were
purchased and used. Until the day of the experiment, general feed (EEGJ30060: Cargill Agri Purina, Seongnam, Korea) and water were sufficiently supplied to the experimental animals, and the animals were acclimated for 1 week under an environment of a temperature of 23±2° C., a humidity of 55±10%, and a light-dark cycle of 12 hours-12 hours and used in the experiment.
After the acclimation period for the experimental animals, to create a muscular atrophy model, the mice were randomly divided into groups of 10 animals, such as a normal group (n=10), a dexamethasone-treated group (n=10), and an oxiracetam-administered group (n=10). The groups except for the normal group were intraperitoneally injected with dexamethasone at a dose of 10 mg/kg from day 7 to day 21 for 14 days. In the case of the oxiracetam-administered group, 7 days before the intraperitoneal administration of dexamethasone, oxiracetam was orally administered using a Zonde needle at a dose of 30 mg/kg/day once a day for 21 days. During the same period, the normal group was administered no drug, and 100 μL of normal saline was orally administered at a time.
The lean body mass for the gastrocnemius muscle (GS) and tibialis anterior (TA) for each group was measured every 7 days. Specifically, animal models of each group were anesthetized using 3% isoflurane, fixed to a photographing bed, and then photographed. The respiration rates and temperatures of the animal models during photographing were measured using an animal monitoring system (SA Instruments, USA).
The whole body of the animal model was photographed through dual energy X-ray absorptiometry (DEXA) using iNSiGHT VET DXA (Osteosys, KR), and the lean body mass of each of the gastrocnemius muscle (GS) and the tibialis anterior (TA) was measured and calculated from the two-dimensional images of the gastrocnemius muscle (GS) and the tibialis anterior (TA) by a program using the region of interest (ROI).
To measure grip strength, a grip strength test was performed. […] The grip strength was measured once every 2 days and 11 times for each mouse.
Tibialis anterior diameters (T1) were measured from two-dimensional images captured by dual-energy X-ray absorptiometry (DEXA) for each group and compared.
First, the experimental animals in each group were acclimatized to a treadmill machine twice before measurement (1st round: inclination 10°, 10 minutes at 5 m/min and 10 minutes at 10 m/min; 2n d round: inclination 10°, 5 minutes at 5 m/min and 15 minutes at 10 m/min). On the day of the experiment, the experimental animals were allowed to run for 20 minutes at an initial speed of 10 m/min at an inclination of 10°, and then the speed was increased by 2 m/min every 2 minutes, and then the running distance and time were measured with the end point when the experimental animal stayed for 10 seconds without running.
Statistical processing was performed using GraphPad Prism (GraphPad Software Inc., San Diego, CA, USA). The results of each repeated experiment were expressed as mean±standard error of mean, and analyzed using the analysis of variance (Tukey's test), and statistical significance was acknowledged when the P-value was 0.05 or less.

Setting [2] is: oxiracetam 30 mg/kg/day oral 21 days + dexamethasone, DEXA.

As for `NC(=O)CN1CC(O)CC1=O` (racemic) [oxiracetam, (RS)-2-(4-hydroxy-2-oxopyrrolidin-1-yl)acetamide], the “diameter of a myotube” value in the test with C2C12 myotubes (TNF-α 10 ng/ml 48 h + oxiracetam 10 μM, compared to TNF-α-treated group) is on record as “significant increase”. Moreover, the “diameter of a myotube relative to control” value in the test on C2C12 myotubes (TNF-α 10 ng/ml 48 h with oxiracetam 10 μM or 0 μM, relative to non-treated control) was “recovers to a level similar to the control”. In addition, the “tibialis anterior (TA) diameter (T1)” value in test [1] (oxiracetam 30 mg/kg/day oral 21 days + dexamethasone 10 mg/kg i.p. day 7-21, DEXA) is “significantly increased”. Moreover, in test [1] (setting [2]), the “lean body mass of the gastrocnemius muscle (GS)” value was “the decrease was significantly suppressed” and the “lean body mass of the tibialis anterior (TA)” value is recorded as “the decrease was significantly suppressed”. For the same compound, the grip strength result in test [1] (oxiracetam 30 mg/kg/day oral 21 days + dexamethasone) is reported as “significantly increased”. In test [1] (oxiracetam 30 mg/kg/day oral + dexamethasone), the “exercise stress test (treadmill): athletic ability” value is “significant improvement”.
